The results in this text go back to patent US11641858B2, “Agricultural chemicals” (Redag Crop Protection Ltd, priority 2016, dated 2023).

SMILES strings stand for the structures. Like-named read-outs stand apart in the source and are kept apart here.

One assay relates to Phytophthora cinnamomi. The experiment in a line: Amended agar assay (potato dextrose agar), reduction in colony growth. Conditions: for EC50: read-out: Phytophthora cinnamomi (EC50); for inhibition of growth at 20 ppm / control over the fungal pathogens tested (in words): primary screen at 20 ppm; for inhibition of growth at 20 ppm: read-out: % control at 20 ppm. In kind it is cell-based. Here is the method:
(§1) Testing was carried out on potato dextrose agar (PDA) amended with each compound at test concentrations of 20, 4 and 0.8, 0.16 and 0.032 ppm. Amended agar at each test concentration was poured into three replicate 9 cm petri dishes. Each replicate dish was inoculated in the centre with a 5 mm agar plug taken from the leading edge of a culture aged between 2 and 7 days old; the age of the culture was dependant on the growth rate of the pathogen being tested. The test pathogens were Pythium ultimum and Phytophthora cinnamomi. Plates were incubated at 18° C. and the diameter of each colony measured before growth on the fastest growing plate reached the plate edge. This varied between 2 and 7 days depending on the growth rate of test pathogens. The % reduction in colony growth compared to the control was calculated for each test concentration and pathogen combination.
(§2) The results are shown in Table 1 in which * represents an average control of up to 50% at said dosage; ** represents an average control of 50% or greater but less than 80% at said dosage; and *** represents an average control of 80% or greater at said dosage.
(§3) A primary screen was also conducted for a number of other compounds of the invention. The screen was conducted at 20 ppm and the results are provided in Table 2, in which D represents no control detected at this concentration; C represents up to 50% control; B from 50 to 99% control; and A represents a control of greater than 99%.
(§4) Alternatively, or in addition, the same assay was conducted at descending test concentrations with 5-fold dilutions typically down to 0.032 ppm, and an EC50 (the concentration at which 50% control would be achieved) was determined. The results are provided in Table 1 in which G represents an EC50 above 20 ppm, F represents an EC50 of 2-20 ppm and E represents and EC50 less than 2 ppm.

A further assay has as its system Pythium ultimum. The description is as above. In kind it is cell-based. Conditions: for average % control at given dosage / inhibition of growth at 20 ppm / control over the fungal pathogens tested (in words): Pythium ultimum; for EC50 / inhibition of growth at 20 ppm: Globisporangium ultimum; for EC50: read-out: Pythium ultimum (EC50); for inhibition of growth at 20 ppm / control over the fungal pathogens tested (in words): primary screen at 20 ppm; for inhibition of growth at 20 ppm: read-out: % control at 20 ppm. How it is done: as §1, §2, §3, §4

Where [1] appears, read: descending test concentrations, 5-fold dilutions typically down to 0.032 ppm.

Regarding `Cn1nnnc1N(C(=O)OCc1cccc(NC(=O)C(F)(F)Oc2ccccc2)n1)c1ccccc1` [B, reference compound], the “average % control at given dosage” value is “* (an average control of up to 50% at said dosage)” in the assay with Phytophthora cinnamomi (dose 0.032 ppm in amended agar); “** (an average control of 50% or greater but less than 80% at said dosage)” with Phytophthora cinnamomi (dose 0.16 ppm in amended agar); “** (an average control of 50% or greater but less than 80% at said dosage)” in the assay with Phytophthora cinnamomi (dose 0.8 ppm in amended agar); “** (an average control of 50% or greater but less than 80% at said dosage)” with Phytophthora cinnamomi (dose 4 ppm in amended agar); “** (an average control of 50% or greater but less than 80% at said dosage)” in the assay with Phytophthora cinnamomi (dose 20 ppm in amended agar); “* (an average control of up to 50% at said dosage)” in the assay with Pythium ultimum (dose 0.032 ppm in amended agar). The “average % control at given dosage” value in the assay with Pythium ultimum (dose 0.16 ppm in amended agar) is “** (an average control of 50% or greater but less than 80% at said dosage)”; with Pythium ultimum (dose 0.8 ppm in amended agar) it was “** (an average control of 50% or greater but less than 80% at said dosage)”; with Pythium ultimum (dose 4 ppm in amended agar), “*** (an average control of 80% or greater at said dosage)”; in the assay on Pythium ultimum (dose 20 ppm in amended agar), “*** (an average control of 80% or greater at said dosage)”.

The EC50 is the concentration giving half of the maximal effect. As to `Cn1nnnc1-n1c(OCc2cccc(NC(=O)c3ccccc3)n2)nc2ccccc21` [Example 27], the EC50 in the assay with Phytophthora cinnamomi (setting [1]) and in the assay on Pythium ultimum (setting [1]) was less than 2 µg/mL in each case.

For the compound `Cn1nnnc1-n1c(OCc2cccc(NC(=O)c3ccccn3)n2)nc2ccccc21` [Example 37, N-(6-(((1-(1-methyl-1H-tetrazol-5-yl)-1H-benzo[d]imidazol-2-yl)oxy)methyl)pyridin-2-yl)picolinamide], the EC50 in the assay on Phytophthora cinnamomi (setting [1]) and in the assay with Pythium ultimum (setting [1]) was less than 2 µg/mL each time.

On to `Cn1nnnc1-n1c(OCc2cccc(NC(=O)C3CC3)n2)nc2ccccc21` [Example 32], for which the EC50 in the assay on Phytophthora cinnamomi (setting [1]) and in the assay on Pythium ultimum (setting [1]) was less than 2 µg/mL each time.

Take `Cn1nnnc1-n1c(OCc2cccc(NC(=O)C(F)(F)Oc3ccccc3)n2)nc2c(F)cc(F)cc21` [Example 55]: the 50% effective concentration (EC50) in the assay with Phytophthora cinnamomi (setting [1]) and in the assay on Pythium ultimum (setting [1]) was less than 2 µg/mL throughout.

Consider `CC(C)OC(=O)Nc1cccc(COc2nc3ccccc3n2-c2nnnn2C)n1` [Example 17], for which the EC50 in the assay with Phytophthora cinnamomi (setting [1]) and with Pythium ultimum (setting [1]) was less than 2 µg/mL throughout.

For the compound `CCC(=O)Nc1cccc(COc2nc3ccccc3n2-c2nnnn2C)n1` [Example 28], the half-maximal effective concentration (EC50) with Phytophthora cinnamomi (setting [1]) and in the assay with Pythium ultimum (setting [1]) was less than 2 µg/mL in each case.

On to `O=C(Nc1cccc(COc2nc3ccccc3n2-c2ncccc2Br)n1)C(F)(F)Oc1ccccc1` [Example 62], for which the inhibition of growth at 20 ppm in the assay on Phytophthora cinnamomi and in the assay on Pythium ultimum was less than 50% throughout.

With `Cn1nnnc1-n1c(OCc2cccc(NC(=O)C[S+](C)[O-])n2)nc2ccccc21` (centres unmarked) [Example 52, N-(6-(((1-(1-Methyl-1H-tetrazol-5-yl)-1H-benzo[d]imidazol-2-yl)oxy)methyl)pyridin-2-yl)-2-(methylsulfinyl)acetamide], the EC50 in the assay on Phytophthora cinnamomi (setting [1]) was 2 to 20 µg/mL; with Pythium ultimum (setting [1]), greater than 20 µg/mL.

On to `Cn1nnnc1-n1c(OCc2cccc(NC(=O)Oc3ccccc3)n2)nc2ccccc21` [Example 15], for which the EC50 in the assay on Phytophthora cinnamomi and in the assay on Pythium ultimum was less than 2 µg/mL each time.

Regarding `Cn1nnnc1-n1c(OCc2cccc(NC(=O)OC3CCCC3)n2)nc2ccccc21` [Example 12], the EC50 in the assay on Phytophthora cinnamomi (setting [1]) and with Pythium ultimum (setting [1]) was less than 2 µg/mL in each case.

For the compound `COc1ccc(C(=O)Nc2cccc(COc3nc4ccccc4n3-c3nnnn3C)n2)cc1` [Example 34], the EC50 with Phytophthora cinnamomi (setting [1]) and in the assay with Pythium ultimum (setting [1]) was less than 2 µg/mL throughout.

`Cn1nnnc1-n1c(OCc2cccc(NC(=O)C(F)(F)Oc3ccccc3)n2)nc2cc(C#N)ccc21` [Example 61]: the EC50 with Phytophthora cinnamomi (setting [1]) and with Pythium ultimum (setting [1]) was less than 2 µg/mL throughout.

For the compound `Cn1nccc1-n1c(OCc2cccc(NC(=O)C(F)(F)Oc3ccccc3)n2)nc2ccccc21` [Example 4], the EC50 in the assay on Phytophthora cinnamomi (setting [1]) and in the assay with Pythium ultimum (setting [1]) was less than 2 µg/mL each time. The inhibition of growth at 20 ppm in the assay on Phytophthora cinnamomi and in the assay on Pythium ultimum was 50 to 99% each time.

In the case of `Cn1nnnc1-n1c(OCc2cccc(NC(=O)CCC3CCCCC3)n2)nc2ccccc21` [Example 47], the half-maximal effective concentration (EC50) with Phytophthora cinnamomi (setting [1]) and in the assay with Pythium ultimum (setting [1]) was less than 2 µg/mL throughout.

For the compound `COCCOC(=O)Nc1cccc(COc2nc3ccccc3n2-c2nnnn2C)n1` [Example 20], the EC50 with Phytophthora cinnamomi (setting [1]) and in the assay with Pythium ultimum (setting [1]) was less than 2 µg/mL each time.

In the case of `CCCOC(=O)Nc1cccc(COc2nc3ccccc3n2-c2nnnn2C)n1` [Example 21], the EC50 in the assay with Phytophthora cinnamomi (setting [1]) and in the assay on Pythium ultimum (setting [1]) was less than 2 µg/mL in each case.

Take `Cn1nnnc1-n1c(OCc2cccc(NC(=O)COCc3ccccc3)n2)nc2ccccc21` [Example 24]: the EC50 with Phytophthora cinnamomi (setting [1]) and in the assay on Pythium ultimum (setting [1]) was less than 2 µg/mL in each case.

As for `CCOC(=O)Nc1cccc(COc2nc3ccccc3n2-c2nnnn2C)n1` [Example 11, Ethyl (6-(((1-(1-methyl-1H-tetrazol-5-yl)-1H-benzo[d]imidazol-2-yl)oxy)methyl)pyridin-2-yl)carbamate], the EC50 in the assay on Phytophthora cinnamomi (setting [1]) and in the assay with Pythium ultimum (setting [1]) was less than 2 µg/mL throughout. Further, the “control over the fungal pathogens tested (in words)” value in the assay on Phytophthora cinnamomi and with Pythium ultimum was “excellent control” in each case. Also, the inhibition of growth at 20 ppm in the assay with Phytophthora cinnamomi was 50 to 99%; in the assay with Pythium ultimum, greater than 99%.

`Cn1nnnc1-n1c(OCc2cccc(NC(=O)OC(C)(C)C)n2)nc2ccccc21` [Example 2]: the 50% effective concentration (EC50) in the assay with Phytophthora cinnamomi (setting [1]) and in the assay on Pythium ultimum (setting [1]) was less than 2 µg/mL in each case. For the same compound, the “control over the fungal pathogens tested (in words)” value in the assay with Phytophthora cinnamomi and in the assay with Pythium ultimum was “excellent control” in each case. In addition, the inhibition of growth at 20 ppm in the assay on Phytophthora cinnamomi and in the assay on Pythium ultimum was greater than 99% throughout.

With `Cc1noc(-n2c(OCc3cccc(NC(=O)C(F)(F)Oc4ccccc4)n3)nc3ccccc32)c1C` [Example 5, N-(6-(((1-(3,4-Dimethylisoxazol-5-yl)-1H-benzo[d]imidazol-2-yl)oxy)methyl)pyridin-2-yl)-2,2-difluoro-2-phenoxyacetamide], the inhibition of growth at 20 ppm is less than 50% in the assay on Phytophthora cinnamomi and 50 to 99% in the assay on Pythium ultimum.

As for `Cn1nnnc1-n1c(OCc2cccc(NC(=O)OC(C)(C)C)n2)nc2c(F)cc(F)cc21` [Example 58], the concentration for a half-maximal effect (EC50) in the assay with Phytophthora cinnamomi (setting [1]) and in the assay on Pythium ultimum (setting [1]) was less than 2 µg/mL throughout.

As for `O=C(Nc1cccc(COc2nc3ccccc3n2-c2ncccc2Cl)n1)C(F)(F)Oc1ccccc1` [Example 63], the EC50 with Phytophthora cinnamomi (setting [1]) and in the assay with Pythium ultimum (setting [1]) was 2 to 20 µg/mL in each case.

Take `Cn1ccnc1-n1c(OCc2cccc(NC(=O)C(F)(F)Oc3ccccc3)n2)nc2ccccc21` [Example 54]: the EC50 with Phytophthora cinnamomi (setting [1]) and in the assay with Pythium ultimum (setting [1]) was less than 2 µg/mL in each case.

As for `Cn1nnnc1-n1c(OCc2cccc(NC(=O)CC3CCCC3)n2)nc2ccccc21` [Example 22, 2-Cyclopentyl-N-(6-(((1-(1-methyl-1H-tetrazol-5-yl)-1H-benzo[d]imidazol-2-yl)oxy)methyl)pyridin-2-yl)acetamide], the EC50 in the assay on Phytophthora cinnamomi (setting [1]) and with Pythium ultimum (setting [1]) was less than 2 µg/mL throughout.

Take `C#CCC(=O)Nc1cccc(COc2nc3ccccc3n2-c2nnnn2C)n1` [Example 48]: the half-maximal effective concentration (EC50) in the assay on Phytophthora cinnamomi (setting [1]) and in the assay on Pythium ultimum (setting [1]) was greater than 20 µg/mL in each case.

For the compound `CCCCOC(=O)Nc1cccc(COc2nc3ccccc3n2-c2nnnn2C)n1` [Example 13], the concentration giving a half-maximal response (EC50) with Phytophthora cinnamomi (setting [1]) and in the assay on Pythium ultimum (setting [1]) was less than 2 µg/mL throughout.

As to `Cn1nnnc1-n1c(OCc2cccc(NC(=O)Cc3ccccc3)n2)nc2ccccc21` [Example 29], the EC50 in the assay with Phytophthora cinnamomi (setting [1]) and in the assay with Pythium ultimum (setting [1]) was less than 2 µg/mL throughout.

Consider `CCCCC(=O)Nc1cccc(COc2nc3ccccc3n2-c2nnnn2C)n1` [Example 31], for which the EC50 in the assay with Phytophthora cinnamomi (setting [1]) and with Pythium ultimum (setting [1]) was less than 2 µg/mL in each case.

Turning to `CSCCC(=O)Nc1cccc(COc2nc3ccccc3n2-c2nnnn2C)n1` [Example 41], the EC50 in the assay on Phytophthora cinnamomi (setting [1]) and in the assay with Pythium ultimum (setting [1]) was less than 2 µg/mL in each case.

`C=CCOC(=O)Nc1cccc(COc2nc3ccccc3n2-c2nnnn2C)n1` [Example 19]: the half-maximal effective concentration (EC50) in the assay with Phytophthora cinnamomi (setting [1]) and in the assay with Pythium ultimum (setting [1]) was less than 2 µg/mL in each case.

For `Cc1nccnc1-n1c(OCc2cccc(NC(=O)OC(C)(C)C)n2)nc2ccccc21` [Example 59], the EC50 with Phytophthora cinnamomi (setting [1]) and in the assay on Pythium ultimum (setting [1]) was greater than 20 µg/mL throughout.

Regarding `O=C(Nc1cccc(COc2nc3ccccc3n2-c2ccccn2)n1)C(F)(F)Oc1ccccc1` [Example 7], the half-maximal effective concentration (EC50) with Phytophthora cinnamomi (setting [1]) and in the assay on Pythium ultimum (setting [1]) was greater than 20 µg/mL in each case.

Turning to `C=CCC(=O)Nc1cccc(COc2nc3ccccc3n2-c2nnnn2C)n1` [Example 50], the EC50 with Phytophthora cinnamomi (setting [1]) and with Pythium ultimum (setting [1]) was less than 2 µg/mL in each case.
